Measured values taken from patent US7563862B2, “Neural regeneration peptides and methods for their use in treatment of brain damage” (Neuren Pharmaceuticals Limited, priority 2001, dated 2009).
Ends that are not written are not given here.

How the values were obtained:
mouse neural stem cells = assay: haptotactic migration assay, mouse neural stem cells; type: cell-based
Experimental: NRPs were tested for migration-inducing/chemoattractive activity on mouse neural stem cells, EGF-dependent immortalized mouse neural stem cell line MEB5 and wild-type PC-12 cells in a haptotactic migration assay as described below.
Initial NRP Coating. Control wells of Transwell plates (Coming) with 12 μm pore size were coated in 1.5 ml of the BSA/PBS vehicle. Remaining plates were coated using various concentrations of NRPs ranging between 1-100 ng/ml (prepared in PBS containing 10 ug/ml BSA). The plates were then incubated at 37° C. for 1 hr to coat. Wells were then rinsed 2× with 1 ml sterile PBS.
Laminin ([…]) for MEB-5 cells, PDL (50 μg/ml)+Matrigel for mouse primary stem cells and fibronectin (25 ug/ml)+matrigel for PC-12 cells were used as extracellular matrix (ECM) coating for the cells. All ECM compounds were diluted in PBS. 1.5 ml of the ECM per well was incubated for 2 hrs at room temperature. The wells were then rinsed once with Iml serum-free media (e.g. NB/B27) followed by 1 ml PBS wash.
A 5 ug/mL PDL/PLL mixture (in PBS) was used to coat inserts. Subsequently the inserts were rinsed with MilliQ water.
Transferring to Media and Cell Seeding: Appropriate medium (MEB-5 cells: DMEM-high glucose+N2 (growth medium supplement from Invitrogen)+10 ng/biotin+2 mM L-glutamine, primary stem cells: NSA-medium from Euroclone and for PC-12 cells: NB/B27 medium) was transferred into the 12-well plates. […] Plates were fixed at 1-2 days in vitro (DIV).
Fixation: Inserts were discarded and wells fixed in successive dilutions of PFA (0.4, 1.2, 3 and 4%) for 3-5min in each dilution. […] The wells were rinsed and stored in PBS until counting.
A haptotactic migration assay was performed according to the description of Example 10 using rat NRP-9SD (SEQ ID NO:34) (4 nM) and mouse NRP-7SW (SEQ ID NO:24) (0.4 nM) as attractants in a Boyden chamber

cerebellar microexplants [1] = assay: cerebellar microexplant proliferation assay under injury (BrdU-positive nuclei); type: cell-based, rat
Experimental: Using the toxins described above, cerebellar explants were exposed for 24 hours, at the beginning of culturing to dilutions of NRP and 0.1 μM BrdU. Subsequently, 80% of the medium was changed without addition of new toxins and NRPs. The cerebellar cultures were fixed as described above after 3 days in vitro. The detection of the incorporated BrdU level was performed as described previously. Under these conditions, over 99% of the cells in the cerebellar population were neurons. Therefore any increase in cell number after NRP administration was most likely due to neuronal cell proliferation.
For statistical analysis of proliferation four fields (each field having an area of 0.65 mm^2) of each fixed cerebellar culture displaying highest density of BrdU-positive nuclei were chosen, and BrdU-positive nuclei were counted. Statistical significance was measured by Student's t-test.
Laminated cerebellar cortex was extracted from P3/4, P7/8 rat pups and triturated through gauze having a 125 μm pore size to obtain uniformly sized microexplants. After centrifugation for 3 minutes at 61 g and the pellet was resuspended in StartV medium (Biochrom) and the suspension seeded on poly-D-lysine coated coverslips in 6-well plates and incubated for 3 hrs to allow adherence, before 1 ml StartV per well was added. As described previously, glutamate/3-NP and NRP were also added. The explants are cultivated at 34° C. at 5% CO2 and 100% humidity for 48-72 hrs. BrdU was administered at start of cultivation for proliferation rate measurements and cells are counted per microscopic field after 48-72 hrs.

cerebellar microexplants [2] = assay: cerebellar microexplant neuronal migration assay; type: cell-based, rat
Excerpt: Another assay of this invention includes embodiments comprising cerebellar microexplants. Laminated cerebellar cortices of the two hemispheres were explanted from a P-4 Long Evans rat, cut into small pieces in GBSS with 0.65% D(+)glucose solution, and triturated by a 0.4 mm gauge needle and subsequently pressed through a 125 μm pore size sieve. The obtained microexplants were centrifuged (200×g) 2 times for a medium exchange into serum-free BSA-supplemented START V-medium (Biochrom). Finally, the microexplants were reconstituted in 500 μl STARTV-medium. For culturing, 38 μl of the cell suspension and 2 μl of migration-inducing factor (NRP-1) in 0.01 M sodium phosphate (pH 7.3) or phosphate alone (control) was incubated for 3 hours on a poly-D-lysine-coated cover slip in a 35 mm Petri dish under an atmosphere comprising 5% CO2 in air and 100% humidity at 34° C. Subsequently, 1 ml of STARTV-medium was added, and the cultures were evaluated after 2-3 days of culture (for example, see FIG. 2).
For immunohistochemistry and neuronal migration experiments, cerebellar microexplants were fixed after 2-3 days in culture after the following regime: microexplants were fixed by 2-minute, serial treatment with 0.4%; 1.2%; 3% paraformaldehyde/0.25% glutaraldehyde, respectively, followed by a 5 min incubation in 4% paraformaldehyde/0.25% glutaraldehyde in 0.1 M sodium phosphate (pH 7.4). MAP-2 was detected using the biotin-streptavidin/Cy3 detection system as described under the immunohistochemistry section of the thalamocortical OTCs.
Microexplants having a diameter between 100-120 μm were chosen for statistical analysis. For quantitative analysis of neuronal migration, an optical device having 10 consecutive rings of 100 μm diameter was applied over the microexplants. All neurons that had migrated after 48 h of culture were counted. Neurons located between circles 1 to 10 (0.1-1 mm) around the margin of the respective microexplant (see FIG. 2) were counted, and each circle was expressed as a percentage of total migrating cells. The unpaired Student's t-test was used for significance analysis. Results were given as mean values±standard deviation.

GFAP-positive astrocytes = assay: astrocyte proliferation (GFAP/BrdU) in thalamocortical OTC cell bridge; type: cell-based, rat
Experimental: FIG. 12 depicts the specificity of the proliferation induced by NRP-1 (SEQ ID NO: 2). We tested the proliferation status of astroglia by monitoring the expression patterns for GFAP and BrdU-incorporation. Thalamocortical OTCs were supplemented with 3 nM highly purified migration-inducing factor and fixed following 4 days in vitro. FIG. 12A (left panel) depicts non-proliferative GFAP-positive astrocytes (white arrows) accompanying the neuronal migration stream, with a subpopulation of astrocytes of proliferative character (FIG. 12B, right panel; white arrow heads). Approximately 30% of the astrocytes in close vicinity to the neuronal migration stream were of proliferative character. Bar: 50 μm.
We also investigated the effects of NRP-1 (SEQ ID NO:2) on the induction of proliferation within astrocytes in a qualitative way. […] Therefore we looked only at the newly formed cell bridge between the thalamic and cortical tissue 4 days after NRP administration.

Row | Substance | more NSCs attracted to the culture dish bottom (mouse neural stem cells; 0.4 nM) [fold] | more E-14 cell density compared with BSA-vehicle (mouse neural stem cells; 10 ng/ml coating, 400,000 cells) [%] | potency relative to SDF-1 (mouse neural stem cells; SDF-1 100 nM vs NRP-7SW 0.2 nM) | up regulation of the proliferation rate observed for injured cerebellar microexplants (cerebellar microexplants [1]; 0.1 pM) [%] | up regulation of the proliferation rate observed for injured cerebellar microexplants (cerebellar microexplants [1]; 100 pM) [%] | enhancement of the proliferation rate (cerebellar microexplants [1]; neurons injured using 3-NP/glutamate) | concentration sufficient to induce significantly enhanced migration of neurons (cerebellar microexplants [2]) [nM] | migrating cerebellar cells distributed between 400-500 μm from microexplant margin (cerebellar microexplants [2]; 3 nM, 2 days of culture) [%] | migrating cerebellar cells distributed between 500-600 μm from microexplant margin (cerebellar microexplants [2]; 3 nM, 2 days of culture) [%] | distance from the cerebellar margin where most of the cells were distributed (cerebellar microexplants [2]; two days after administration) | distance from the margin of a significant population of cells (cerebellar microexplants [2]; two days after administration) | astroglial division (GFAP-positive astrocytes) | astrocytes in close vicinity to the neuronal migration stream of proliferative character (GFAP-positive astrocytes; 3 nM, 4 days in vitro)
1 | SEPEARRAPGRKGGVVCASLAADW-NH2 [NRP-7 segment SW, 24-mer form of mouse NRP-7] | 2 | 35 | about 500 times | 252.6 | 123.7 | more than 200% | – | – | – | – | – | – | –
2 | NRP-1: rat 16 amino acid neural regeneration peptide purified from hippocampal OTC supernatant, Tyr Asp Pro Glu ... Cys His-NH2 (YDPEAASAPGSGNPCH-NH2) | – | – | – | – | – | – | 3 | 7.3±2.8 | 13.2±13.9 | 200-300 μm | 500-600 μm | does not induce astroglial division | Approximately 30%
